Experiment [1] has as its system CS242 ERMS (screening) cells. The experiment can be described thus: CS242 ERMS (screening) cell viability assay, CellTiter-Glo, 72 h. Particulars: Homo sapiens, 72 h, read-out: CS242 ERMS viability IC50, Table 3 PDE inhibitor panel; 72 h; top 18.8, 75 or 93.8 μM; mean ± SD (n = 3). On the procedure: To generate cells optimized for high-throughput screening (HTS), one vial of frozen cells from the CS242 ERMS (initial) master cell bank was thawed in a 37°C water bath for 2 min, diluted by dropwise addition of 10 volumes of PBS, pelleted at 200 × g for 5 min, resuspended in PBS, pelleted, resuspended in medium, and transferred to a T75 flask. Cells were grown to 70% confluence over 27 days, with media changes every 3 days. Cells were then detached by trypsin treatment as described above [see CS242 ERMS (Initial)] and split at 1:20 into T150 flasks, giving 20 individual cultures at passage 7. After growth for a further 27 days with media changes every 3 days, cells reached 70% confluence and were detached and frozen as described above [see CS242 ERMS (Initial)] to give a working cell bank at passage 8.
Cell growth in 384-well plates was assessed daily for 5 days to determine the optimal starting cell number giving progressive growth suitable for a 72-h cell viability assay. One vial of CS242 ERMS cells was thawed from the screening bank and grown in a T75 flask until confluence was >70%, after which cells were detached using trypsin and counted as described above [see CS242 ERMS (Zardaverine Resistant)].
Using an electronic 16-channel pipettor (Finnpipette Novus MCP16), 40 μl of each cell dilution was dispensed into two columns of a TC-treated opaque white 384-well plate, giving a range of 10,000 to 78 cells/well. Columns 1, 2, 23, and 24 were filled with media alone (40 μl/well). Five replicate plates were covered with MicroClime environmental lids (Labcyte) to minimize evaporation and incubated at 37°C, 5% CO2 for 24, 48, 72, 96, and 120 h, respectively. A sixth plate was prepared for determination of cell viability at the time of cell seeding. To determine cell viability, plates were allowed to cool to room temperature for 1 h after removal from 37°C incubation, 20 μl/well of CellTiter-Glo was added using a MicroFlo Select microplate reagent dispenser (BioTek, Winooski, VT, USA), and luminescence was measured after an additional 30 min at room temperature using an EnVision microplate reader (PerkinElmer, Waltham, MA, USA).
The IC50 of dactinomycin was determined using cells passaged once from the CS242 ERMS (screening) cell bank [see CS242 ERMS (Screening)]. Cells were thawed, grown to 70% confluence over 3 days in a T75 flask, detached by trypsin treatment, seeded at 1,250 cells in 30 μl of media/well in 384-well opaque white TC plates, and allowed to attach overnight. […] After 72 h of cell growth in the presence of dactinomycin, 20 μl of CellTiter-Glo was added, and cell viability was determined as described above (see Cell Viability Assay Development). Percent viability was determined from luminescence values using high controls (no dactinomycin) and low controls (media alone; no cells), and IC50 values were calculated using four-parameter dose–response curve fitting analysis in GraphPad Prism.
The 2,000-compound Microsource Spectrum library was screened using a fresh batch of CS242 ERMS (screening) cells for each HTS run, prepared as described above (see Cell Viability Assay Development). […] Media alone was added to low control (background) wells in columns 2 and 24. Plates were covered using MicroClime environmental lids (Labcyte), and cells were allowed to attach overnight (≤12 h) at 37°C in an atmosphere of 5% CO2.
Compounds were delivered to columns 3–22 of assay plates containing attached cells via an intermediate dilution. […] Likewise, DMSO was added to columns 1, 2, 23, and 24 for high and low controls, matching the 0.06% DMSO in the test wells.

The subject of the next experiment is PDE3. Particulars: PDE 3; ref [19], [20]; read-out: Reported PDE inhibition IC50; cited from earlier work.
The subject of experiment [2] is glucocorticoid receptor (GR) activation. On the set-up: method as in earlier work. Particulars: 18 h treatment; ref [30]; cited from earlier work.

These results are taken from paper PMC5376947, “Cytotoxicity of Zardaverine in Embryonal Rhabdomyosarcoma from a Costello Syndrome Patient” (Frontiers in Oncology, 2017).

Take `CN(C(=O)CCCOc1ccc2[nH]c(=O)ccc2c1)C1CCCCC1` [Cilostamide]: the half-maximal inhibitory concentration (IC50) is above 18800 nM in experiment [1] and 27 nM in the experiment with PDE3. In addition, the “activity in GR activation screen, in words” value in experiment [2] is “inactive”.
